# Patent US12187709B2 (Genentech, Inc., priority 2021, dated 2025)
# Key:
# [1] = biological target: Human Cbl-b (residues 40-426) (Homo sapiens (Human), UniProt Q13191); experiment: Cbl-b SPR assay; format: binding; details: for Fold of selectivity: C-cbl SPR Kd vs Cbl-b SPR Kd; for Kd: SPR, 20° C.
# In short: (§1)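 Values derive from a 1:1 model fitted to multicycle kinetics on captured protein (1300-1500 RU), using six 2-fold concentrations, 60 s contact and dissociation of 120-1200 s. In the chaser format, kd comes from a single-exponential fit of % site occupancy over time.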
# Cbl-b = Cbl-b (Homo sapiens (Human), UniProt Q13191); experiment: Cbl-b LCK Ub TR-FRET assay (Cbl-b Lck HTRF); format: biochemical; details: for IC50: Cbl-b LCK Ub TR-FRET; for fold-selectivity (Cbl-b over C-cbl) / (fold-selectivity) Cbl-b and C-Cbl Selectivity: ratio C-cbl Lck HTRF IC50 / Cbl-b Lck HTRF IC50
# In short: (§2)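 After the ubiquitination reaction, detection mixture was added and plates incubated 20 min at room temperature before reading. IC50 values were calculated with wells lacking LCK as the low control and DMSO as the high control.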
# c-Cbl = c-Cbl (Homo sapiens (Human), UniProt P22681); experiment: C-Cbl LCK Ub TR-FRET assay (C-cbl Lck HTRF); format: biochemical
# In short: as §2
# c-Cbl (residues 47-435) = c-Cbl (residues 47-435) (Homo sapiens (Human), UniProt P22681); experiment: c-Cbl SPR assay; format: binding; details: 20° C.
# In short: as §1
# c-Cbl, sequence (P22681 47-435): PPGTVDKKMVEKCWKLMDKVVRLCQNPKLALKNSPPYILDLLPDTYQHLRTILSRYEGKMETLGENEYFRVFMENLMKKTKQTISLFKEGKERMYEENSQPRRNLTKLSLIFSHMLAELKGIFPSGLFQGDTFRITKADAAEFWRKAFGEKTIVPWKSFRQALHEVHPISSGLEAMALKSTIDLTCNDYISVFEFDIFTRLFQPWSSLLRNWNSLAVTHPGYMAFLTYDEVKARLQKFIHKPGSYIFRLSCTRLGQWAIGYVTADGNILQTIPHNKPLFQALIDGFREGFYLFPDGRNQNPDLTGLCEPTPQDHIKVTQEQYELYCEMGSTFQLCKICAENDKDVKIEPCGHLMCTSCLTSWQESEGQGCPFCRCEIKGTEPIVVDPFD
# c-Cbl (residues 47-435), sequence (P22681 47-435): as above
# Cbl-b, sequence (Q13191 40-426): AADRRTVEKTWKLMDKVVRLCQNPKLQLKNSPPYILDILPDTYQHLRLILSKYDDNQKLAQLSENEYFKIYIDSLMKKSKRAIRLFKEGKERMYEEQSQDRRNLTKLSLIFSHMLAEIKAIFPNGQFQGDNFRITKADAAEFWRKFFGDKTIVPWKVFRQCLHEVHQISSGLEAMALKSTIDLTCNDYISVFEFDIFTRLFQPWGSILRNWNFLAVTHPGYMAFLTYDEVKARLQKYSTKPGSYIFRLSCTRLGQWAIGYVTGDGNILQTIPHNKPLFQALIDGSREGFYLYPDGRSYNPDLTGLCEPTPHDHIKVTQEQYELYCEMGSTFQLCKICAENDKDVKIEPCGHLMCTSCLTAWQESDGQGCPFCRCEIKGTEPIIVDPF
# Human Cbl-b (residues 40-426), sequence (Q13191 40-426): as above
Structure (SMILES),Fold of selectivity [1],Kd [1],IC50 (Cbl-b),fold-selectivity (Cbl-b over C-cbl) (Cbl-b),IC50 (c-Cbl),Kd (c-Cbl (residues 47-435)),IC50 (Cbl-b; Example 121),(fold-selectivity) Cbl-b and C-Cbl Selectivity (Cbl-b)
"Cn1cnnc1[C@]1(c2cccc(N3Cc4c(cc(CNC5(C)CCC5)cc4C(F)(F)F)C3=O)c2)C[C@H](CC#N)C1 [Compound 88, 2-((1s,3s)-3-(4-methyl-4H-1,2,4-triazol-3-yl)-3-(3-(6-(((1-methylcyclobutyl)amino)methyl)-1-oxo-4-(trifluoromethyl)isoindolin-2-yl)phenyl)-cyclobutyl)acetonitrile]",4.1×,21 nM,12 nM,1.0x,12 nM,87 nM,,
"CO[C@H]1C[C@@](c2cc(NC3CCCC3)cc(N3Cc4c(cc(CNC5(C)CCC5)cc4C(F)(F)F)C3=O)c2)(c2nncn2C)C1 [Compound 218, 2-(3-(cyclopentylamino)-5-((1s,3s)-3-methoxy-1-(4-methyl-4H-1,2,4-triazol-3-yl)cyclobutyl)phenyl)-6-(((1-methylcyclobutyl)amino)methyl)-4-(trifluoromethyl)isoindolin-1-one]",10×,77 nM,81 nM,10x,810 nM,770 nM,,
"CO[C@H]1C[C@](c2cccc(N3Cc4c(cc(CNC5CC(C(F)F)C5)cc4C(F)(F)F)C3=O)c2)(c2nncn2C)C1 (stereo partly shown) [Compound 494, 6-(((3-(difluoromethyl)cyclobutyl)amino)methyl)-2-(3-((1r,3r)-3-methoxy-1-(4-methyl-4H-1,2,4-triazol-3-yl)cyclobutyl)phenyl)-4-(trifluoromethyl)isoindolin-1-one]",11×,1.8 nM,,,25 nM,20 nM,8.3 nM,3.1x
"CO[C@H]1C[C@@](c2cccc(N3Cc4c(cc(CN5CCN(C)C[C@@H]5C(C)C)cc4C(F)(F)F)C3=O)c2)(c2nncn2C)C1 (single isomer, unassigned) [Compound 172]",4.7×,67 nM,88 nM,3.4x,290 nM,310 nM,,
"CC[C@@H](NC1(C)CCC1)c1cc2c(c(C(F)(F)F)c1)CN(c1cccc([C@H](c3nncn3C)C3COC3)c1)C2=O [Compound 314, 2-(3-((R)-(4-methyl-4H-1,2,4-triazol-3-yl)(oxetan-3-yl)methyl)phenyl)-6-((R)-1-((1-methylcyclobutyl)amino)propyl)-4-(trifluoromethyl)isoindolin-1-one]",5.5×,5.1 nM,11 nM,4.5x,51 nM,28 nM,,
"CO[C@H]1C[C@](c2cccc(N3Cc4c(cc(CNCC5(O)CC5)cc4C(F)(F)F)C3=O)c2)(c2nncn2C)C1 [Compound 473, 6-((((1-hydroxycyclopropyl)methyl)amino)methyl)-2-(3-((1r,3r)-3-methoxy-1-(4-methyl-4H-1,2,4-triazol-3-yl)cyclobutyl)phenyl)-4-(trifluoromethyl)isoindolin-1-one]",11×,7.6 nM,,,50 nM,85 nM,14 nM,3.6x
"Cn1cnnc1C1(c2cccc(N3Cc4c(cc(CNC5(C)CCC5)cc4C(F)(F)F)C3=O)c2)CN(CC(F)(F)F)C1 [Compound 110, 2-(3-(3-(4-methyl-4H-1,2,4-triazol-3-yl)-1-(2,2,2-trifluoroethyl)azetidin-3-yl)phenyl)-6-(((1-methylcyclobutyl)amino)methyl)-4-(trifluoromethyl)isoindolin-1-one]",7.2×,1100 nM,1400 nM,6.5x,9400 nM,7600 nM,,
"CO[C@H]1C[C@](c2cccc(N3Cc4c(cc(CN5CC(C)(O)C5)cc4C(F)(F)F)C3=O)c2)(c2nncn2C)C1 [Compound 478, 6-((3-hydroxy-3-methylazetidin-1-yl)methyl)-2-(3-((1r,3r)-3-methoxy-1-(4-methyl-4H-1,2,4-triazol-3-yl)cyclobutyl)phenyl)-4-(trifluoromethyl)isoindolin-1-one]",8.7×,120 nM,,,840 nM,1100 nM,130 nM,6.4x
"CO[C@H]1C[C@](c2cccc(N3Cc4c(cc(CNCC(C)(C)F)cc4C(F)(F)F)C3=O)c2)(c2nncn2C)C1 [Compound 483, 6-(((2-fluoro-2-methylpropyl)amino)methyl)-2-(3-((1r,3r)-3-methoxy-1-(4-methyl-4H-1,2,4-triazol-3-yl)cyclobutyl)phenyl)-4-(trifluoromethyl)isoindolin-1-one]",18×,4.6 nM,,,58 nM,84 nM,10 nM,5.8x
"CO[C@H]1C[C@](c2cc(N[C@H](C)CC#N)cc(N3Cc4c(cc(CNC5(C)CCC5)cc4C(F)(F)F)C3=O)c2)(c2nncn2C)C1 (single isomer, unassigned) [Compound 221]",5.8×,1.3 nM,11 nM,1.5x,16 nM,7.6 nM,,
"CO[C@H]1C[C@](c2cccc(N3Cc4c(cc(CN[C@@H]5C[C@H]5C)cc4C(F)(F)F)C3=O)c2)(c2nncn2C)C1 [Compound 502, 2-(3-((1r,3R)-3-methoxy-1-(4-methyl-4H-1,2,4-triazol-3-yl)cyclobutyl)phenyl)-6-((((1R,2R)-2-methylcyclopropyl)amino)methyl)-4-(trifluoromethyl)isoindolin-1-one]",14×,5 nM,,,39 nM,69 nM,9.4 nM,4.1x
"Cn1cnnc1[C@@H](c1cccc(N2Cc3c(cc(CNC4(C)CCC4)cc3C(F)(F)F)C2=O)c1)[C@H]1C[C@H](C)C1 (single isomer, unassigned) [Compound 378]",14×,6.9 nM,9.4 nM,6.0x,56 nM,96 nM,,
"CO[C@H]1C[C@](c2cc(C)cc(N3Cc4c(cc(CNC5(C)CCC5)cc4C(F)(F)F)C3=O)c2)(c2nncn2C)C1 [Compound 230, 2-(3-((1r,3r)-3-methoxy-1-(4-methyl-4H-1,2,4-triazol-3-yl)cyclobutyl)-5-methylphenyl)-6-(((1-methylcyclobutyl)amino)methyl)-4-(trifluoromethyl)isoindolin-1-one]",2.3×,75 nM,190 nM,1.5x,290 nM,170 nM,,
"C[C@@H]1C[C@@](c2cccc(N3Cc4c(cc(CNC5(C)CCC5)cc4C(F)(F)F)C3=O)c2)(c2nncn2C)O1 [Compound 124, 2-(3-((2R,4R)-4-methyl-2-(4-methyl-4H-1,2,4-triazol-3-yl)oxetan-2-yl)phenyl)-6-(((1-methylcyclobutyl)amino)methyl)-4-(trifluoromethyl)isoindolin-1-one]",3.9×,17 nM,56 nM,1.9x,100 nM,67 nM,,
"Cn1cnnc1[C@@H](c1cc(F)cc(N2Cc3c(cc(CNC4(C)CCC4)cc3C(F)(F)F)C2=O)c1)C1COC1 (single isomer, unassigned) [Compound 152]",6.5×,8.7 nM,18 nM,2.9x,52 nM,59 nM,,
"Cn1cnnc1[C@H](c1cccc(N2Cc3c(cc(CNC4(C)CCC4)cc3C(F)(F)F)C2=O)c1)C1CCOCC1.O=CO (single isomer, unassigned) [Compound 291, (S)-2-(3-((4-methyl-4H-1,2,4-triazol-3-yl)(tetrahydro-2H-pyran-4-yl)methyl)phenyl)-6-(((1-methylcyclobutyl)amino)methyl)-4-(trifluoromethyl)isoindolin-1-one formate]",,62 nM,11 nM,,47 nM,130 nM,,
"CO[C@H]1C[C@](c2cccc(N3Cc4c(cc(CN5CCC5)cc4C(F)(F)F)C3=O)c2)(c2nncn2C)C1 [Compound 480, 6-(azetidin-1-ylmethyl)-2-(3-((1r,3r)-3-methoxy-1-(4-methyl-4H-1,2,4-triazol-3-yl)cyclobutyl)phenyl)-4-(trifluoromethyl)isoindolin-1-one]",11×,45 nM,,,280 nM,490 nM,34 nM,7.9x
"Cn1cnnc1[C@H](c1cccc(N2Cc3c(cc([C@H](NC4(C)CCC4)C4CCC4)cc3C(F)(F)F)C2=O)c1)C1COC1 (single isomer, unassigned) [Compound 434]",13×,190 nM,,,510 nM,2500 nM,160 nM,3.1x
"Cn1cnnc1C1(c2cccc(N3Cc4c(cc([C@@H](O)CO)cc4C(F)(F)F)C3=O)c2)CCC1 (single isomer, unassigned) [Compound 301]",2.8×,560 nM,300 nM,2.0x,590 nM,1400 nM,,
